Measured values published in patent publication US20150164762A1, “USE OF ETHANOLAMINE PHOSPHATE” (priority 2012, published 2015).

Test system: BEAS-2B
Assay: Comprehensive gene expression analysis with Whole Human Genome DNA microarray after EP treatment
Format: cell-based
Method: Cells of the established normal human airway epithelial cell line BEAS-2B were used in the experiment. These cells were expansively cultured in 10% FBS RPMI-1640, and seeded at a density of 1×10^5/cm^2 on a 24-well plate. After 24 hours 0.1% FBS RPMI-1640 was substituted, and EP was administered to a final concentration of 0 or 1 mM (n=4). After 24 hours, the cells were used as the DNA microarray samples. RNA was extracted using a QIAGEN RNeasy Mini Kit. The DNA microarray test was performed using a Whole Human Genome DNA microarray 4×44K (Agilent), and the necessary labeling reagents and the like for the DNA microarray test were all from Agilent. The DNA microarray test data were analyzed statistically with GeneSpring (Agilent) dedicated analysis software, and gene function analysis (Gene Ontology (GO) analysis) was performed based on differential expression. The purpose of the GO analysis is to determine stochastically the degree to which gene sets with statistically significant differential expression correspond to known functional classification gene sets. […] The p-value is calculated according to the following formula.

[1] = probe A_23_P306987, 1 mM EP, 24 h
[2] = probe A_23_P315815, NM_004495, EP vs control
[3] = probe A_23_P326913, BC019095, EP vs control
[4] = probe A_23_P336611, 1 mM EP, 24 h
[5] = probe A_23_P337242, 1 mM EP, 24 h
[6] = probe A_23_P344421, 1 mM EP, 24 h
[7] = probe A_23_P346311, 1 mM EP, 24 h
[8] = probe A_23_P358944, 1 mM EP, 24 h
[9] = probe A_23_P360777, NM_013960, EP vs control
[10] = probe A_23_P360797, 1 mM EP, 24 h
[11] = probe A_23_P371727, 1 mM EP, 24 h
[12] = probe A_23_P373521, 1 mM EP, 24 h
[13] = probe A_23_P382775, 1 mM EP, 24 h
[14] = probe A_23_P383278, NM_023078, EP vs control
[15] = probe A_23_P404887, 1 mM EP, 24 h
[16] = probe A_23_P407012, NM_172210, EP vs control
[17] = probe A_23_P411296, 1 mM EP, 24 h
[18] = probe A_23_P426305, NM_003734, EP vs control
[19] = probe A_23_P500034, 1 mM EP, 24 h
[20] = probe A_23_P502553, 1 mM EP, 24 h
[21] = probe A_23_P2094013, 1 mM EP, 24 h
[22] = probe A_24_P4661, 1 mM EP, 24 h
[23] = probe A_24_P12401, NM_001025366, EP vs control
[24] = probe A_24_P18105, NM_032466, EP vs control
[25] = probe A_24_P38363, 1 mM EP, 24 h
[26] = probe A_24_P60930, NM_006129, EP vs control
[27] = probe A_24_P83815, 1 mM EP, 24 h
[28] = probe A_24_P122921, 1 mM EP, 24 h
[29] = probe A_24_P135322, 1 mM EP, 24 h
[30] = probe A_24_P139152, 1 mM EP, 24 h
[31] = probe A_24_P139993, 1 mM EP, 24 h
[32] = probe A_24_P175519, NM_003329, EP vs control
[33] = probe A_24_P179400, NM_001025370, EP vs control
[34] = probe A_24_P193911, 1 mM EP, 24 h
[35] = probe A_24_P200000, NM_182915, EP vs control
[36] = probe A_24_P207479, 1 mM EP, 24 h
[37] = probe A_24_P209047, NM_000879, EP vs control

NCCOP(=O)(O)O [EP, Ethanolamine phosphate]
SOX7 expression R: Ratio to control [1]: 0.338 times | SOX7 expression log2 [ratio] [1]: −1.568 | NRG1 gene expression, R* ratio to control [2]: 0.666 times | NRG1 gene expression, log2 [ratio] [2]: −0.586 | PRUNE2 gene expression, R* ratio to control [3]: 1.441 times | PRUNE2 gene expression, log2 [ratio] [3]: 0.527 | APAF1 expression R*: Ratio to control [4]: 0.420 times | APAF1 expression log2 [ratio] [4]: −1.253 | TGFBR2 expression R*: Ratio to control [5]: 1.630 times | TGFBR2 expression log2 [ratio] [5]: 0.705 | ROBO4 expression R*: Ratio to control [6]: 1.633 times | ROBO4 expression log2 [ratio] [6]: 0.707 | BAX expression R*: Ratio to control [7]: 0.511 times | BAX expression log2 [ratio] [7]: −0.969 | PML expression R: Ratio to control [8]: 0.586 times | PML expression log2 [ratio] [8]: −0.770 | NRG1 gene expression, R* ratio to control [9]: 0.651 times | NRG1 gene expression, log2 [ratio] [9]: −0.620 | NTF3 expression R: Ratio to control [10]: 0.492 times | NTF3 expression log2 [ratio] [10]: −1.024 | CKS2 expression R*: Ratio to control [11]: 1.510 times | CKS2 expression log2 [ratio] [11]: 0.595 | HAND2 expression R*: Ratio to control [12]: 1.971 times | HAND2 expression log2 [ratio] [12]: 0.979 | BBC3 expression R*: Ratio to control [13]: 0.315 times | BBC3 expression log2 [ratio] [13]: −1.566 | PYCRL gene expression, R* ratio to control [14]: 1.441 times | PYCRL gene expression, log2 [ratio] [14]: 0.527 | BIK expression R*: Ratio to control [15]: 0.298 times | BIK expression log2 [ratio] [15]: −1.743 | CSF1 gene expression, R* ratio to control [16]: 0.593 times | CSF1 gene expression, log2 [ratio] [16]: −0.753 | CEBPB expression R*: Ratio to control [17]: 0,383 times | CEBPB expression log2 [ratio] [17]: −1.385 | AOC3 gene expression, R* ratio to control [18]: 1.540 times | AOC3 gene expression, log2 [ratio] [18]: 0.623 | GL12 expression R*: Ratio to control [19]: 2.060 times | GL12 expression log2 [ratio] [19]: 1.043 | TRIM35 expression R*: Ratio to control [20]: 0.618 times | TRIM35 expression log2 [ratio] [20]: −0.695 | CASP10 expression R*: Ratio to control [21]: 0.552 times | CASP10 expression log2 [ratio] [21]: −0.857 | E124 expression R*: Ratio to control [22]: 0.652 times | E124 expression log2 [ratio] [22]: −0.618 | VEGFA gene expression, R* ratio to control [23]: 0.540 times | VEGFA gene expression, log2 [ratio] [23]: −0.889 | ASPH gene expression, R* ratio to control [24]: 1.560 times | ASPH gene expression, log2 [ratio] [24]: 0.642 | MYC expression R*: Ratio to control [25]: 1.686 times | MYC expression log2 [ratio] [25]: 0.754 | BMP1 gene expression, R* ratio to control [26]: 0.613 times | BMP1 gene expression, log2 [ratio] [26]: −0.706 | NLRP1 expression R*: Ratio to control [27]: 0.558 times | NLRP1 expression log2 [ratio] [27]: −0.841 | BCL2L11 expression R*: Ratio to control [28]: 0.636 times | BCL2L11 expression log2 [ratio] [28]: −0.652 | NRP1 expression R*: Ratio to control [29]: 1.664 times | NRP1 expression log2 [ratio] [29]: 0.735 | COL8A1 expression R*: Ratio to control [30]: 1.703 times | COL8A1 expression log2 [ratio] [30]: 0.768 | CASP10 expression R*: Ratio to control [31]: 0.609 times | CASP10 expression log2 [ratio] [31]: −0.716 | TXN gene expression, R* ratio to control [32]: 1.438 times | TXN gene expression, log2 [ratio] [32]: 0.524 | VEGFA gene expression, R* ratio to control [33]: 0.650 times | VEGFA gene expression, log2 [ratio] [33]: −0.621 | MAPRE2 expression R*: Ratio to control [34]: 1.666 times | MAPRE2 expression log2 [ratio] [34]: 0.736 | STEAP3 gene expression, R* ratio to control [35]: 2.009 times | STEAP3 gene expression, log2 [ratio] [35]: 1.007 | DEDD2 expression R*: Ratio to control [36]: 0.597 times | DEDD2 expression log2 [ratio] [36]: −0.744 | IL5 gene expression, R* ratio to control [37]: 0.304 times | IL5 gene expression, log2 [ratio] [37]: −1.719
